The supplement of paper PMC10307832

How the values were obtained:
Assay in all cases: relative viability (nuclei count vs DMSO), 5 days (fraction); higher = more cells survive
H3255 = test system: H3255
In short: (§1)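 Relative viability divides the nuclei count in treated wells by that in vehicle wells. Lung cancer cell lines were seeded in 1536-well plates, dosed by pin tool the next day, and fixed and stained after 5 days in one step with final 0.05% Triton X-100, 1% formaldehyde and 1 ug/ml Hoechst. Dosing was a single drug or a fixed anchor-drug dose plus five library-drug doses (not always all listed) in √10 steps, and values are medians of duplicate plates imaged at 4×.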

NCI-H2009 = test system: NCI-H2009
In short: as §1

ABC-1 = test system: ABC-1
In short: as §1

ChaGo-K-1 = test system: ChaGo-K-1
In short: as §1

NCI-H441 = test system: NCI-H441
In short: as §1

CAL-12T = test system: CAL-12T
In short: as §1

NCI-H322M = test system: NCI-H322M
In short: as §1

NCI-H1792 = test system: NCI-H1792
In short: as §1

NCI-H2342 = test system: NCI-H2342
In short: as §1

EKVX = test system: EKVX
In short: as §1

NCI-H1975 = test system: NCI-H1975
In short: as §1

NCI-H460 = test system: NCI-H460
In short: as §1

NCI-H2228 = test system: NCI-H2228
In short: as §1

NCI-H1993 = test system: NCI-H1993
In short: as §1

HCC-366 = test system: HCC-366
In short: as §1

COR-L 105 = test system: COR-L 105
In short: as §1

SK-MES-1 = test system: SK-MES-1
In short: as §1

NCI-H2085 = test system: NCI-H2085
In short: as §1

NCI-H1355 = test system: NCI-H1355
In short: as §1

EPLC-272H = test system: EPLC-272H
In short: as §1

HCC-827 = test system: HCC-827
In short: as §1

NCI-H2087 = test system: NCI-H2087
In short: as §1

Cc1csc(=NC2CCCCC2)n1/N=C/c1ccc(O)c(O)c1O [MIM1] + O=C(c1cc(Cc2n[nH]c(=O)c3ccccc23)ccc1F)N1CCN(C(=O)C2CC2)CC1 [Olaparib] (partner 8 µM)
relative viability (H3255; first compound 0.2 µM): 0.535 | relative viability (H3255; first compound 0.6325 µM): 0.541 | relative viability (H3255; first compound 2 µM): 0.518 | relative viability (H3255; first compound 6.325 µM): 0.473 | relative viability (H3255; first compound 20 µM): 0.253 | relative viability (NCI-H2009; first compound 0.2 µM): 0.662 | relative viability (NCI-H2009; first compound 0.6325 µM): 0.655 | relative viability (NCI-H2009; first compound 2 µM): 0.723 | relative viability (NCI-H2009; first compound 6.325 µM): 0.504 | relative viability (NCI-H2009; first compound 20 µM): 0.482 | relative viability (ABC-1; first compound 0.2 µM): 0.952 | relative viability (ABC-1; first compound 0.6325 µM): 1.27 | relative viability (ABC-1; first compound 2 µM): 1.03 | relative viability (ABC-1; first compound 6.325 µM): 0.78 | relative viability (ABC-1; first compound 20 µM): 0.388 | relative viability (ChaGo-K-1; first compound 0.2 µM): 0.399 | relative viability (ChaGo-K-1; first compound 0.6325 µM): 0.346 | relative viability (ChaGo-K-1; first compound 2 µM): 0.385 | relative viability (ChaGo-K-1; first compound 6.325 µM): 0.214 | relative viability (ChaGo-K-1; first compound 20 µM): 0.127 | relative viability (NCI-H441; first compound 0.2 µM): 0.485 | relative viability (NCI-H441; first compound 0.6325 µM): 0.66 | relative viability (NCI-H441; first compound 2 µM): 0.581 | relative viability (NCI-H441; first compound 6.325 µM): 0.254 | relative viability (NCI-H441; first compound 20 µM): 0.144 | relative viability (CAL-12T; first compound 0.2 µM): 0.708 | relative viability (CAL-12T; first compound 0.6325 µM): 0.685 | relative viability (CAL-12T; first compound 2 µM): 0.682 | relative viability (CAL-12T; first compound 6.325 µM): 0.505 | relative viability (CAL-12T; first compound 20 µM): 0.396 | relative viability (NCI-H322M; first compound 0.2 µM): 0.742 | relative viability (NCI-H322M; first compound 0.6325 µM): 0.683 | relative viability (NCI-H322M; first compound 2 µM): 0.72 | relative viability (NCI-H322M; first compound 6.325 µM): 0.746 | relative viability (NCI-H322M; first compound 20 µM): 0.367 | relative viability (NCI-H1792; first compound 0.2 µM): 0.469 | relative viability (NCI-H1792; first compound 0.6325 µM): 0.368 | relative viability (NCI-H1792; first compound 2 µM): 0.454 | relative viability (NCI-H1792; first compound 6.325 µM): 0.279 | relative viability (NCI-H1792; first compound 20 µM): 0.398 | relative viability (NCI-H2342; first compound 0.2 µM): 0.432 | relative viability (NCI-H2342; first compound 0.6325 µM): 0.386 | relative viability (NCI-H2342; first compound 2 µM): 0.42 | relative viability (NCI-H2342; first compound 6.325 µM): 0.395 | relative viability (NCI-H2342; first compound 20 µM): 0.571 | relative viability (EKVX; first compound 0.2 µM): 0.776 | relative viability (EKVX; first compound 0.6325 µM): 0.785 | relative viability (EKVX; first compound 2 µM): 0.59 | relative viability (EKVX; first compound 6.325 µM): 0.51 | relative viability (EKVX; first compound 20 µM): 0.412 | relative viability (NCI-H1975; first compound 0.2 µM): 0.737 | relative viability (NCI-H1975; first compound 0.6325 µM): 0.755 | relative viability (NCI-H1975; first compound 2 µM): 0.778 | relative viability (NCI-H1975; first compound 6.325 µM): 0.307 | relative viability (NCI-H1975; first compound 20 µM): 0.17 | relative viability (NCI-H460; first compound 0.2 µM): 0.403 | relative viability (NCI-H460; first compound 0.6325 µM): 0.411 | relative viability (NCI-H460; first compound 2 µM): 0.195 | relative viability (NCI-H460; first compound 6.325 µM): 0.213 | relative viability (NCI-H460; first compound 20 µM): 0.0637 | relative viability (NCI-H2228; first compound 0.2 µM): 0.719 | relative viability (NCI-H2228; first compound 0.6325 µM): 0.719 | relative viability (NCI-H2228; first compound 2 µM): 0.861 | relative viability (NCI-H2228; first compound 6.325 µM): 0.227 | relative viability (NCI-H2228; first compound 20 µM): 0.192 | relative viability (NCI-H1993; first compound 0.2 µM): 1 | relative viability (NCI-H1993; first compound 0.6325 µM): 0.819 | relative viability (NCI-H1993; first compound 2 µM): 0.949 | relative viability (NCI-H1993; first compound 6.325 µM): 0.873 | relative viability (NCI-H1993; first compound 20 µM): 0.432 | relative viability (HCC-366; first compound 0.2 µM): 0.351 | relative viability (HCC-366; first compound 2 µM): 0.249 | relative viability (HCC-366; first compound 6.325 µM): 0.0373 | relative viability (HCC-366; first compound 20 µM): 0.0269 | relative viability (COR-L 105; first compound 0.2 µM): 0.694 | relative viability (COR-L 105; first compound 0.6325 µM): 0.673 | relative viability (COR-L 105; first compound 2 µM): 0.63 | relative viability (COR-L 105; first compound 6.325 µM): 0.554 | relative viability (COR-L 105; first compound 20 µM): 0.564 | relative viability (SK-MES-1; first compound 0.2 µM): 0.743 | relative viability (SK-MES-1; first compound 0.6325 µM): 0.657 | relative viability (SK-MES-1; first compound 2 µM): 0.548 | relative viability (SK-MES-1; first compound 6.325 µM): 0.259 | relative viability (SK-MES-1; first compound 20 µM): 0.108 | relative viability (NCI-H2085; first compound 0.2 µM): 0.768 | relative viability (NCI-H2085; first compound 0.6325 µM): 0.797 | relative viability (NCI-H2085; first compound 2 µM): 0.771 | relative viability (NCI-H2085; first compound 6.325 µM): 0.596 | relative viability (NCI-H2085; first compound 20 µM): 0.641 | relative viability (NCI-H1355; first compound 0.2 µM): 0.731 | relative viability (NCI-H1355; first compound 0.6325 µM): 0.664 | relative viability (NCI-H1355; first compound 2 µM): 0.803 | relative viability (NCI-H1355; first compound 6.325 µM): 0.603 | relative viability (NCI-H1355; first compound 20 µM): 0.297 | relative viability (EPLC-272H; first compound 0.2 µM): 0.664 | relative viability (EPLC-272H; first compound 0.6325 µM): 0.858 | relative viability (EPLC-272H; first compound 2 µM): 0.622 | relative viability (EPLC-272H; first compound 6.325 µM): 0.111 | relative viability (EPLC-272H; first compound 20 µM): 0.108 | relative viability (HCC-827; first compound 0.2 µM): 0.653 | relative viability (HCC-827; first compound 0.6325 µM): 0.626 | relative viability (HCC-827; first compound 2 µM): 0.639 | relative viability (HCC-827; first compound 6.325 µM): 0.37 | relative viability (HCC-827; first compound 20 µM): 0.241 | relative viability (NCI-H2087; first compound 0.2 µM): 0.535 | relative viability (NCI-H2087; first compound 0.6325 µM): 0.701 | relative viability (NCI-H2087; first compound 2 µM): 0.702 | relative viability (NCI-H2087; first compound 6.325 µM): 0.481 | relative viability (NCI-H2087; first compound 20 µM): 0.241
